Experiments:
Flt-3 kinase = Flt-3 kinase (Homo sapiens (Human), UniProt P36888); test: Flt-3 kinase biochemical activity assay (AlphaScreen, biotin-(E4Y)10 phosphorylation); details: 100 μM ATP
Experimental: In one assay the biochemical activity IC50 values are determined with respect to inhibition of Flt-3 kinase activity, where inhibition of phosphorylation of a peptide substrate is measured as a function of compound concentration. Compounds to be tested, dissolved in DMSO (1 μL), are added to a white 384-well plate (Costar #3705). Working stocks of Flt-3 kinase (Invitrogen), biotin-(E4Y)10 substrate (Upstate Biotech, Cat#12-440), and ATP (Sigma, Cat#A-3377) are prepared in 25 mM Hepes pH 7.5, 5 mM MgCl2, 5 mM MnCl2, 1 mM DTT, and 0.01% Tween-20. All components are added to the 384-well plate for a final concentration of 1 ng/well Flt-3, 30 nM biotin-(E4Y)10 and 100 μM ATP in a volume of 20 μL. Each sample is at 5% DMSO. The plate is then incubated for 1 hour at room temperature. Just before use, working stocks of donor and acceptor beads from the AlphaScreen PY20 Detection Kit (PerkinElmer, Cat#676601M) are prepared in 25 mM Hepes pH 7.5, pH 7.4, 100 mM EDTA. 0.3% BSA. To stop the reaction, the plate is uncovered in the dark and 5 μL of Donor Beads solution (Streptavidin beads) is added to each well. The plate is incubated at room temperature for 20 minutes. Five microliters of Acceptor Beads solution (PY20 coated beads) are then added to each well. The final concentration of each bead is 10 μg/mL. The plates are incubated at room temperature for 60 minutes. Fluorescence signal is recorded on the Envision reader. Phosphorylated substrate results in binding of the PY20 antibody and association of the donor and acceptor beads such that signal correlates with kinase activity. The signal vs. compound concentration is used to determine the IC50.

[1] = Turbidity assay of relative solubility in aqueous buffers; type: physicochemical; details: for turbidity threshold (L, M, H) 1.4: pH 1.4 as headed (method: SGF pH 1.5); for turbidity threshold (L, M, H) 4.5: pH 4.5 (SIF); for turbidity threshold (L, M, H) 6.8: pH 6.8 (SIF); for turbidity threshold (L, M, H) 7.4: pH 7.4 (HEPES)
Outline: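 Turbidity was read spectrophotometrically at 490, 535 and 650 nm, and the endpoint is the concentration where OD passes 0.01, as the mean of the three wavelengths. Compounds came from 25 mM DMSO stock in 1:1 serial dilutions, added to HEPES pH 7.4, SIF pH 6.8 or 4.5 (0.05M NaH2PO4), or SGF pH 1.5 (0.5M NaCl).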

Flt-3 kinase, sequence (P36888 27-993): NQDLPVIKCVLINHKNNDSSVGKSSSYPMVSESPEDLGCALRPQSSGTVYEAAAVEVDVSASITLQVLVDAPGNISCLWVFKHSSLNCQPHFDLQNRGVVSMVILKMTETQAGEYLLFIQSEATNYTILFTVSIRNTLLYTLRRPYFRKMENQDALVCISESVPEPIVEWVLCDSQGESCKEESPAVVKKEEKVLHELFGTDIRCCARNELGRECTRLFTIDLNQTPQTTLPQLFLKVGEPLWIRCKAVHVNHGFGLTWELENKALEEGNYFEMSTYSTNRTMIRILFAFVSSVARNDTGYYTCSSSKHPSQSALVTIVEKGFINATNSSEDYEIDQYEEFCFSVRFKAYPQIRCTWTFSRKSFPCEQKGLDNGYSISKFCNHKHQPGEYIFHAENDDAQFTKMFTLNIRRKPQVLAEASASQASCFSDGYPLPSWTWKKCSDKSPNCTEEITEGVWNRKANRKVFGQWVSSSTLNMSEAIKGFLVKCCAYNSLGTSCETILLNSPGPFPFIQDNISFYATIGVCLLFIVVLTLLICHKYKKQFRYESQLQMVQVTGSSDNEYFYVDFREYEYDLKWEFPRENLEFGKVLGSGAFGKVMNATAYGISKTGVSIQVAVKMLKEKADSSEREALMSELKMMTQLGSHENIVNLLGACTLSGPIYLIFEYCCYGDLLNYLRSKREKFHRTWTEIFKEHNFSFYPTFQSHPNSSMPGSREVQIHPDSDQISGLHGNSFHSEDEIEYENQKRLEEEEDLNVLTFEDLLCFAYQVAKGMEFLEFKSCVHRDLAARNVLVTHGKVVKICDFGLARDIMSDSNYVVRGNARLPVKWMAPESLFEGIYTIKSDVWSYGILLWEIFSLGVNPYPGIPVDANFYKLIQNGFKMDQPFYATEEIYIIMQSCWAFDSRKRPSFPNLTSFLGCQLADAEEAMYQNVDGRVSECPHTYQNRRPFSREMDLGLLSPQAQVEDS

| Compound | IC50 (Flt-3 kinase) [µM] | turbidity threshold (L, M, H) 1.4 [1] | turbidity threshold (L, M, H) 4.5 [1] | turbidity threshold (L, M, H) 6.8 [1] | turbidity threshold (L, M, H) 7.4 [1] |
| --- | --- | --- | --- | --- | --- |
| Fc1nc(NCc2ccc(Cl)cn2)ccc1Cc1c[nH]c2ncccc12 [Compound P-2044, (5-Chloro-pyridin-2-ylmethyl)-[6-fluoro-5-(1H-pyrrolo[2,3-b]pyridin-3-ylmethyl)-pyridin-2-yl]-amine] | > 0.1 | – | – | – | – |
| Fc1ccc(CNc2ccc(Cc3c[nH]c4ncc(Cl)cc34)cn2)cn1 [Compound P-2004, [5-(5-chloro-1H-pyrrolo[2,3-b]pyridin-3-ylmethyl)-pyridin-2-yl]-(6-fluoro-pyridin-3-ylmethyl)-amine] | < 0.1 | H (high solubility if the threshold concentration is >250 μM) | M (moderate solubility if the threshold concentration is 31.3 μM to 250 μM) | M (moderate solubility if the threshold concentration is 31.3 μM to 250 μM) | M (moderate solubility if the threshold concentration is 31.3 μM to 250 μM) |
| COc1cnc2[nH]cc(Cc3ccc(NCc4ccc(OC)nc4)nc3F)c2c1 [Compound P-2030, [6-Fluoro-5-(5-methoxy-1H-pyrrolo[2,3-b]pyridin-3-ylmethyl)-pyridin-2-yl]-(6-methoxy-pyridin-3-ylmethyl)-amine] | < 0.1 | H (high solubility if the threshold concentration is >250 μM) | M (moderate solubility if the threshold concentration is 31.3 μM to 250 μM) | M (moderate solubility if the threshold concentration is 31.3 μM to 250 μM) | L (low solubility if the threshold concentration is <31.3 μM) |
| COc1ccnc2[nH]cc(Cc3ccc(NCc4ccc(Cl)cc4)nc3F)c12 [Compound P-2037, (4-Chloro-benzyl)-[6-fluoro-5-(4-methoxy-1H-pyrrolo[2,3-b]pyridin-3-ylmethyl)-pyridin-2-yl]-amine] | < 0.1 | M (moderate solubility if the threshold concentration is 31.3 μM to 250 μM) | L (low solubility if the threshold concentration is <31.3 μM) | L (low solubility if the threshold concentration is <31.3 μM) | L (low solubility if the threshold concentration is <31.3 μM) |
| Clc1cnc2[nH]cc(Cc3ccc(NCc4ccc(Cl)nc4)nc3)c2c1 [Compound P-2003] | < 0.1 | H (high solubility if the threshold concentration is >250 μM) | M (moderate solubility if the threshold concentration is 31.3 μM to 250 μM) | L (low solubility if the threshold concentration is <31.3 μM) | L (low solubility if the threshold concentration is <31.3 μM) |
| COc1cnc2[nH]cc(Cc3ccc(NCc4ccccc4Cl)nc3F)c2c1 [Compound P-2034, (2-chloro-benzyl)-[6-fluoro-5-(5-methoxy-1H-pyrrolo[2,3-b]pyridin-3-ylmethyl)-pyridin-2-yl]-amine] | < 0.1 | – | – | – | – |
| Cc1cnc2[nH]cc(Cc3ccc(NCc4ccc(C(F)(F)F)nc4)nc3)c2c1 [Compound P-2019, [5-(5-Methyl-1H-pyrrolo[2,3-b]pyridin-3-ylmethyl)-pyridin-2-yl]-(6-trifluoromethyl-pyridin-3-ylmethyl)-amine] | < 0.1 | H (high solubility if the threshold concentration is >250 μM) | M (moderate solubility if the threshold concentration is 31.3 μM to 250 μM) | M (moderate solubility if the threshold concentration is 31.3 μM to 250 μM) | L (low solubility if the threshold concentration is <31.3 μM) |
| COc1ccc(CNc2ncc(Cc3c[nH]c4ncc(C)cc34)cn2)cn1 [Compound P-2057, (6-Methoxy-pyridin-3-ylmethyl)-[5-(5-methyl-1H-pyrrolo[2,3-b]pyridin-3-ylmethyl)-pyrimidin-2-yl]-amine] | < 0.1 | H (high solubility if the threshold concentration is >250 μM) | L (low solubility if the threshold concentration is <31.3 μM) | L (low solubility if the threshold concentration is <31.3 μM) | M (moderate solubility if the threshold concentration is 31.3 μM to 250 μM) |
| Fc1cncc(CNc2ccc(Cc3c[nH]c4ncc(Cl)cc34)c(F)n2)c1 [Compound P-2001, [5-(5-Chloro-1H-pyrrolo[2,3-b]pyridin-3-ylmethyl)-6-fluoro-pyridin-2-yl]-(5-fluoro-pyridin-3-ylmethyl)-amine] | – | M (moderate solubility if the threshold concentration is 31.3 μM to 250 μM) | L (low solubility if the threshold concentration is <31.3 μM) | L (low solubility if the threshold concentration is <31.3 μM) | L (low solubility if the threshold concentration is <31.3 μM) |
| COc1ncc(CNc2ncc(Cc3c[nH]c4ncc(C)cc34)cn2)cc1F [Compound P-2073, (5-Fluoro-6-methoxy-pyridin-3-ylmethyl)-[5-(5-methyl-1H-pyrrolo[2,3-b]pyridin-3-ylmethyl)-pyrimidin-2-yl]-amine] | – | H (high solubility if the threshold concentration is >250 μM) | M (moderate solubility if the threshold concentration is 31.3 μM to 250 μM) | M (moderate solubility if the threshold concentration is 31.3 μM to 250 μM) | M (moderate solubility if the threshold concentration is 31.3 μM to 250 μM) |
| COc1ccc(CNc2ncc(Cc3c[nH]c4ncc(C)cc34)cc2C)cn1 [Compound P-1554, (6-Methoxy-pyridin-3-ylmethyl)-[3-methyl-5-(5-methyl-1H-pyrrolo[2,3-b]pyridin-3-ylmethyl)-pyridin-2-yl]-amine] | – | H (high solubility if the threshold concentration is >250 μM) | H (high solubility if the threshold concentration is >250 μM) | M (moderate solubility if the threshold concentration is 31.3 μM to 250 μM) | M (moderate solubility if the threshold concentration is 31.3 μM to 250 μM) |
| Cc1cnc2[nH]cc(Cc3cnc(NCc4ccc(C(F)(F)F)nc4)c(F)c3)c2c1 [Compound P-2146, [3-Fluoro-5-(5-methyl-1H-pyrrolo[2,3-b]pyridin-3-ylmethyl)-pyridin-2-yl]-(6-trifluoromethyl-pyridin-3-ylmethyl)-amine] | – | H (high solubility if the threshold concentration is >250 μM) | M (moderate solubility if the threshold concentration is 31.3 μM to 250 μM) | M (moderate solubility if the threshold concentration is 31.3 μM to 250 μM) | L (low solubility if the threshold concentration is <31.3 μM) |

Reference: US9096593B2, “Compounds and methods for kinase modulation, and indications therefor” (Plexxikon Inc., priority 2009, dated 2015)
